Test results published in US20250368666A1, “INDAZOLE COMPOUNDS” (TYRA BIOSCIENCES, INC., priority 2022, published 2025).
pIC50: −log10 of the molar value.

Key:
[1] = target: T1, FGFR3 (Homo sapiens, UniProt P22607); assay: Kinase binding assay (kinase-tagged T7 phage, affinity beads, qPCR), Kd; conditions: read-out: FGFR3 (Kd nM)
T1 construct: made in house; host or cells: E. coli (BL21-derived), T7 phage
Procedure, shortened: (§1)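 Competition binding; kinase-tagged T7 phage lysate vs immobilised biotinylated ligand on streptavidin beads, 0.9% DMSO final. 11-pt 3-fold dilutions, 3 DMSO controls. qPCR of eluted kinase; Kd by Hill fit, slope −1.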

[2] = target: T2, FGFR2 (Homo sapiens, UniProt P21802); assay: as above; conditions: read-out: FGFR2 (Kd nM)
T2 construct: made in house; host or cells: E. coli (BL21-derived), T7 phage
T2 sequence (P21802 22-821): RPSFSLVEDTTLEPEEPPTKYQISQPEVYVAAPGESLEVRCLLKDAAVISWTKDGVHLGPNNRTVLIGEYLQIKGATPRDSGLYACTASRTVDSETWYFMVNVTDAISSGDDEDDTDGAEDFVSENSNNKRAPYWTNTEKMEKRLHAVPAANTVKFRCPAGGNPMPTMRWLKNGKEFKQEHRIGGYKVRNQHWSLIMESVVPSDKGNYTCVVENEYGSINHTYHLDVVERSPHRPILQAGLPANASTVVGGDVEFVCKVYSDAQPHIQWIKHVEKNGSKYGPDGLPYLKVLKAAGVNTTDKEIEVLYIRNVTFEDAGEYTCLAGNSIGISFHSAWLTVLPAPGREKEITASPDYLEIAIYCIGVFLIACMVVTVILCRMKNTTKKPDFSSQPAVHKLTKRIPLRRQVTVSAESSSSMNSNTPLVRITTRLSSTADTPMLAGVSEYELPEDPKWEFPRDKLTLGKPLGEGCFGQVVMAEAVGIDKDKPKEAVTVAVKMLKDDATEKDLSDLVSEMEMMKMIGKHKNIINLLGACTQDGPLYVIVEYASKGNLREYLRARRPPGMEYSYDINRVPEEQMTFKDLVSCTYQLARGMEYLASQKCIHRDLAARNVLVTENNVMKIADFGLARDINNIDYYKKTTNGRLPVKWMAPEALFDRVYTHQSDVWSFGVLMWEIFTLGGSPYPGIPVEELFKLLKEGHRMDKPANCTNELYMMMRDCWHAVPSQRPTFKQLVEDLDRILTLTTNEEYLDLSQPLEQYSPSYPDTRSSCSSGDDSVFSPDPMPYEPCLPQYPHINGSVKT
Procedure, shortened: as §1

[3] = target: T3, FGFR1 (Homo sapiens, UniProt P11362); assay: as above; conditions: read-out: FGFR1 (Kd nM)
T3 construct: made in house; host or cells: E. coli (BL21-derived), T7 phage
T3 sequence (P11362 22-822): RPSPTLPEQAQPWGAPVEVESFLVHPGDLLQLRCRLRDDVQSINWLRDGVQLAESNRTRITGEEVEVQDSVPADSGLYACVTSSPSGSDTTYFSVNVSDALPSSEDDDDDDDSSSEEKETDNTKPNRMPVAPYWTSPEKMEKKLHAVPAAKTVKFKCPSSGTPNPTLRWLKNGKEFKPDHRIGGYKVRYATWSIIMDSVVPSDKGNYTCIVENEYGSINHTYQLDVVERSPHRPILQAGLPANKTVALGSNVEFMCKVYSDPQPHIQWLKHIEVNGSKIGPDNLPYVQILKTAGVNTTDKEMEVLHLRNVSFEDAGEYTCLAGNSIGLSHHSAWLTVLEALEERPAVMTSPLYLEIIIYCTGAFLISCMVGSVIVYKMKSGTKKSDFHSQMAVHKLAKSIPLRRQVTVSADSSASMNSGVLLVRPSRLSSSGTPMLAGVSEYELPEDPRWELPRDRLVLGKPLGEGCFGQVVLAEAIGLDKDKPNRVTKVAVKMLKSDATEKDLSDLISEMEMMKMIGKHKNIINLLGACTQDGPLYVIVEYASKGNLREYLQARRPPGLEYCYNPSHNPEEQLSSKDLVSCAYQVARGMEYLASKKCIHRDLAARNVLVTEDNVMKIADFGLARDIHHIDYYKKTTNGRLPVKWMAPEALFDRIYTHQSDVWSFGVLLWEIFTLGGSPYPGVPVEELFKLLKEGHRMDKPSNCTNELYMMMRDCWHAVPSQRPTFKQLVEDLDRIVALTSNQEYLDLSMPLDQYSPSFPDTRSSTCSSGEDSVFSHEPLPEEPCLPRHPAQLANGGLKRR
Procedure, shortened: as §1

[4] = target: T4, FGFR4 (Homo sapiens, UniProt P22455); assay: as above; conditions: read-out: FGFR4 (Kd nM)
T4 construct: made in house; host or cells: E. coli (BL21-derived), T7 phage
T4 sequence (P22455 22-802): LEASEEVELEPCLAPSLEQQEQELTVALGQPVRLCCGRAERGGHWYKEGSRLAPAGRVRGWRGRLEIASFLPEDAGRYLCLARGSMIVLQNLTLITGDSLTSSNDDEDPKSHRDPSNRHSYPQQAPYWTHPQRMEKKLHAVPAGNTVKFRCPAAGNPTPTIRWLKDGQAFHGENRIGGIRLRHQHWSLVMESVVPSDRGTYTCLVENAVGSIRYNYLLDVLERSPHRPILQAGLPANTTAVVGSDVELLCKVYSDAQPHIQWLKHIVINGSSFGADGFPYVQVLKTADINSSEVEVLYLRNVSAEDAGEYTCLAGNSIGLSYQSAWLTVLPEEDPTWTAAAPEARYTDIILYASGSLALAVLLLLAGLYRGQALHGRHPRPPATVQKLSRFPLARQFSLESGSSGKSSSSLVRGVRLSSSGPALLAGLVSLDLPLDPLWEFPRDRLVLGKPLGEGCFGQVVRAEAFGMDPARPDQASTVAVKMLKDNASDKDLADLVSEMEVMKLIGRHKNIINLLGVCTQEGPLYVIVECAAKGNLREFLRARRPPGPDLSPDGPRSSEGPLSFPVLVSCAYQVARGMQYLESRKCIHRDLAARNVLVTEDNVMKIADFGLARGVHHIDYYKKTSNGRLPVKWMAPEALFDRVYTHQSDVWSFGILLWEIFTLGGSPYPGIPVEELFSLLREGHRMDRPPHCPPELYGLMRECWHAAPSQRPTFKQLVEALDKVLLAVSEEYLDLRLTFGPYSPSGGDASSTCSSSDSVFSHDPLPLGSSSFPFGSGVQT
Procedure, shortened: as §1

[5] = target: T5, FGFR3 (V555M) (Homo sapiens, UniProt P22607, V555M); assay: as above; conditions: V555M mutant; read-out: FGFR3 (V555M) (Kd nM)
T5 construct: made in house; host or cells: E. coli (BL21-derived), T7 phage
T5 sequence (P22607 23-806 V555M): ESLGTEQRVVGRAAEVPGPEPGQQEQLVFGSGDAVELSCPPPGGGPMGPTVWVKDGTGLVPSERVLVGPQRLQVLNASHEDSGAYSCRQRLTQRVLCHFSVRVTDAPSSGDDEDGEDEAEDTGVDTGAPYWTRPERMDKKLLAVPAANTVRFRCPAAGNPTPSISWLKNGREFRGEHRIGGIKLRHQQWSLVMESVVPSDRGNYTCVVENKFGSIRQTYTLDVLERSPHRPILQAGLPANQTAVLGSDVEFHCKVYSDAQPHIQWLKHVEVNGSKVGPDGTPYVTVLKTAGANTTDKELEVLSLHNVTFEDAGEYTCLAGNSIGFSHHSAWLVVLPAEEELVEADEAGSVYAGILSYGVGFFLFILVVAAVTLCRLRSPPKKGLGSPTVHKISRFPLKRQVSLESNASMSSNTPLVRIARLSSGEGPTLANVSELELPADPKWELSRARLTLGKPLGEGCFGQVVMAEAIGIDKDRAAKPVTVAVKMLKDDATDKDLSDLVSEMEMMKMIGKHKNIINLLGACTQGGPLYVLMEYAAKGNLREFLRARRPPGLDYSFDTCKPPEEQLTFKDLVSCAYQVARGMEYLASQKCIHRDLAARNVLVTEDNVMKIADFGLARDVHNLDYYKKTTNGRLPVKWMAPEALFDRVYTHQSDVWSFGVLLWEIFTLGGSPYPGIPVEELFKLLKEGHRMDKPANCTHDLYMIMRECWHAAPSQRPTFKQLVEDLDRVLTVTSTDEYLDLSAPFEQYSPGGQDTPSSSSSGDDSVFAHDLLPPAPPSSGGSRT
Procedure, shortened: as §1

[6] = system: RT112/84 cell line (FGFR3-fusion); assay: Cancer cell line cell viability assay (Cell Titer-Glo), 72 hr; assay type: cell-based; conditions: Homo sapiens, RT112/84, RT112/84 cell line (FGFR3-fusion)
Procedure, shortened: (§2)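 Intracellular ATP was measured by Cell Titer-Glo 2.0 luminescence after cells were incubated with compound dilutions (top 3 μM, 4-fold, 9 doses). Values were expressed relative to DMSO-treated cells and IC50 was calculated from a variable-slope dose-response curve.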

[7] = system: KATO-III cell line (FGFR2 amplification); assay: as above; assay type: cell-based; conditions: Homo sapiens, KATO III
Procedure, shortened: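 5,000-20,000 cells/well o/n; cpd 9-pt 4x dil from 3 μM, n=3; 37° C/5% CO2; CTG 2.0 lumi; % DMSO ctrl; 4PL IC50.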

[8] = system: KG-1 cell line (FGFR 1-fusion); assay: as above; assay type: cell-based; conditions: Homo sapiens, KG-1, KG-1 cell line (FGFR1-fusion)
Procedure, shortened: as §2

[9] = system: MDA-MB-453 cell line (FGFR4-Y367C); assay: Cancer cell line cell viability assay (Cell Titer-Glo), 120 hr; assay type: cell-based; conditions: Homo sapiens
Procedure, shortened: as §2

T1 sequence (P22607 23-806): as the sequence (P22607 23-806 V555M) above, with M533V counted along it

Row | SMILES | Kd [1] | Kd [2] | Kd [3] | Kd [4] | Kd [5] | pIC50 [6] | pIC50 [7] | pIC50 [8] | pIC50 [9]
1 | C[C@H](Oc1ccc2[nH]nc(-c3cnc(N4CC(C)(CS(C)(=O)=O)C4)c(F)c3)c2c1)c1c(Cl)cncc1Cl [Example 200, (S)-5-(1-(3,5-dichloropyridin-4-yl)ethoxy)-3-(5-fluoro-6-(3-methyl-3-((methyl-sulfonyl)meth-yl)azetidin-1-yl)pyridin-3-yl)-1H-indazole] | 50 to 300 nM | > 1000 nM | 300 to 1000 nM | 50 to 300 nM | 1 to 50 nM | < 6.00 | < 6.00 | < 6.00 | < 6.00
2 | CNC1(C)CN(c2ncc(-c3n[nH]c4ccc(O[C@@H](C)c5c(Cl)cncc5Cl)cc34)cc2F)C1 [Example 205, 1-[5-[5-[(1S)-1-(3,5-dichloro-4-pyridyl)ethoxy]-1H-indazol-3-yl]-3-fluoro-2-pyridyl]-N,3-dimethyl-azetidin-3-amine] | 50 to 300 nM | 300 to 1000 nM | 50 to 300 nM | 50 to 300 nM | 1 to 50 nM | < 6.00 | 6.00 to 6.70 | < 6.00 | < 6.00
3 | C[C@@H](Oc1ccc2[nH]nc(-c3cnc(N4C[C@@H](CS(C)(=O)=O)[C@@H]4C)c(F)c3)c2c1)c1c(Cl)cncc1Cl [Example 206, 5-((R)-1-(3,5-dichloropyridin-4-yl)ethoxy)-3-(5-fluoro-6-((2S,3R)-2-methyl-3-((methylsulfonyl)methyl)azetidin-1-yl)pyridin-3-yl)-1H-indazole] | 1 to 50 nM | 1 to 50 nM | 1 to 50 nM | 1 to 50 nM | 1 to 50 nM | 7.30 to 10.00 | 7.30 to 10.00 | 6.70 to 7.30 | 6.70 to 7.30

The next lines start with the values.

Row | Kd [1] | Kd [2] | Kd [3] | Kd [4] | Kd [5] | pIC50 [6] | pIC50 [7] | pIC50 [8] | pIC50 [9] | SMILES
4 | 1 to 50 nM | 1 to 50 nM | 1 to 50 nM | 1 to 50 nM | 1 to 50 nM | 7.30 to 10.00 | 7.30 to 10.00 | 6.70 to 7.30 | 7.30 to 10.00 | C[C@@H](Oc1ccc2[nH]nc(-c3cnc(N4CC(C)(NCCS(C)(=O)=O)C4)c(F)c3)c2c1)c1c(Cl)cncc1Cl [Example 166, (R)-1-(5-(5-(1-(3,5-Dichloropyridin-4-yl)ethoxy)-1H-indazol-3-yl)-3-fluoropyridin-2-yl)-3-methyl-N-(2-(methylsulfonyl)ethyl)azetidin-3-amine]
5 | 1 to 50 nM | 1 to 50 nM | 1 to 50 nM | 1 to 50 nM | 1 to 50 nM | 7.30 to 10.00 | 7.30 to 10.00 | 6.70 to 7.30 | 7.30 to 10.00 | C[C@@H](Oc1ccc2[nH]nc(-c3cnc(N4CC(C)(N5CCS(=O)(=O)CC5)C4)c(F)c3)c2c1)c1c(Cl)cncc1Cl [Example 167, 4-[1-[5-[5-[(1R)-1-(3,5-dichloro-4-pyridyl)ethoxy]-1H-indazol-3-yl]-3-fluoro-2-pyridyl]-3-methyl-azetidin-3-yl]-1,4-thiazinane 1,1-dioxide]
6 | 1 to 50 nM | 1 to 50 nM | 1 to 50 nM | 1 to 50 nM | 1 to 50 nM | 7.30 to 10.00 | 7.30 to 10.00 | 6.70 to 7.30 | 6.70 to 7.30 | C[C@@H](Oc1ccc2[nH]nc(-c3ccc(N4CC(C)(CS(C)(=O)=O)C4)nc3)c2c1)c1c(Cl)cncc1Cl [Example 181, (R)-5-(1-(3,5-dichloropyridin-4-yl)ethoxy)-3-(6-(3-methyl-3-((methylsulfonyl)-methyl)azetidin-1-yl)pyridin-3-yl)-1H-indazole]
7 | 1 to 50 nM | 1 to 50 nM | 1 to 50 nM | 1 to 50 nM | 1 to 50 nM | 7.30 to 10.00 | 7.30 to 10.00 | 6.00 to 6.70 | 7.30 to 10.00 | C[C@@H](Oc1ccc2[nH]nc(-c3cnc(N4CC(C)(NCP(C)(C)=O)C4)c(F)c3)c2c1)c1c(Cl)cncc1Cl [Example 182, 1-[5-[5-[(1R)-1-(3,5-dichloro-4-pyridyl)ethoxy]-1H-indazol-3-yl]-3-fluoro-2-pyridyl]-N-(dimethylphosphorylmethyl)-3-methyl-azetidin-3-amine]
